Holding throughout (format): cell-based
For assay [1], the target named is T1, Muscarinic acetylcholine receptor M1 (Homo sapiens, UniProt P11229).
T1 sequence (P11229 whole entry): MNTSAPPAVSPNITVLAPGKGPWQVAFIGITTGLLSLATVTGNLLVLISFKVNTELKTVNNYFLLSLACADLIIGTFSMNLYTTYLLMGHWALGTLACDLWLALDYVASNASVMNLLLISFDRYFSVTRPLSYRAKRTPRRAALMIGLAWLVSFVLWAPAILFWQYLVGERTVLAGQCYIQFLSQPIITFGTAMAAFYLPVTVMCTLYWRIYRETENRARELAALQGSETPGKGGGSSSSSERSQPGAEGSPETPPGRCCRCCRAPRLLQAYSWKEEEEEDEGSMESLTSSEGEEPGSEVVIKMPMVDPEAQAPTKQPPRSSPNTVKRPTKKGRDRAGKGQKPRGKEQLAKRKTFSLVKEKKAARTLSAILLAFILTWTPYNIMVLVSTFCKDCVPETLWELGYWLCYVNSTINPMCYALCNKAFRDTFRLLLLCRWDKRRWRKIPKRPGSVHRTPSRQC
The assay can be described thus: Binding affinity against human muscarine receptor (hM1) cloned in CHO cells.

Assay [2] concerns the target T2, Muscarinic acetylcholine receptor M2 (Homo sapiens, UniProt P08172).
T2 sequence (P08172 whole entry): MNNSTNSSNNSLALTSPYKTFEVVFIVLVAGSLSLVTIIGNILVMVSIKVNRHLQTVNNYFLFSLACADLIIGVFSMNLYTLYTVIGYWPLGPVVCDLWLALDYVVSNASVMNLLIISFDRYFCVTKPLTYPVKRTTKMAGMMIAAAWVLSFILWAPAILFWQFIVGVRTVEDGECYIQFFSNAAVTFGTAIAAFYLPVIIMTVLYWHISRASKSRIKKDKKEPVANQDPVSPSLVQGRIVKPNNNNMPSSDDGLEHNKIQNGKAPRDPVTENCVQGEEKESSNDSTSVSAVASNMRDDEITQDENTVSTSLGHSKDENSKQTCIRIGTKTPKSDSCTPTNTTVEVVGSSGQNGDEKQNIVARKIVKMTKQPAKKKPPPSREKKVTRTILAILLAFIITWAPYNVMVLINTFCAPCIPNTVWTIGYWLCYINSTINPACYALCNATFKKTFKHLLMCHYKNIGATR
The experiment in a line: Binding affinity against human muscarine receptor (hM2) cloned in CHO cells.

Assay [3] concerns the target Muscarinic acetylcholine receptor M3 (Homo sapiens, UniProt P20309). The assay can be described thus: Binding affinity against human muscarine receptor (hM3) cloned in CHO cells.
In assay [4] the target is T3, Muscarinic acetylcholine receptor M4 (Homo sapiens, UniProt P08173).
T3 sequence (P08173 whole entry): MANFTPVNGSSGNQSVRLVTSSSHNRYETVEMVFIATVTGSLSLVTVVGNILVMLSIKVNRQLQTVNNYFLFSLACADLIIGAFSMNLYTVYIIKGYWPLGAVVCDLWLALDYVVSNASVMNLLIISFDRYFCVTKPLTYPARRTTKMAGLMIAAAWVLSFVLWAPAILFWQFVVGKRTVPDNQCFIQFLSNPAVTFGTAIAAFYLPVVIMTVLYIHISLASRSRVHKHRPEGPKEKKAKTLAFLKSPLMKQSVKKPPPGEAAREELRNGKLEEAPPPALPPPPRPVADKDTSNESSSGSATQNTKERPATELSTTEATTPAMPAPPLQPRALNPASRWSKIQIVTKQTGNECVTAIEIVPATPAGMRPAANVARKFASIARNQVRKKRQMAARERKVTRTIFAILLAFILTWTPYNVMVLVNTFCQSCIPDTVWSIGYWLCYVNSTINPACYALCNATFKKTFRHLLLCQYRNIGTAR
The assay can be described thus: Binding affinity against human muscarine receptor (hM4) cloned in CHO cells.

Structures are written as SMILES.

This is an account of results in ChEMBL document CHEMBL1135177 (Bioorg Med Chem Lett, 2002).

Chain of Muscarinic acetylcholine receptor M3 (P20309 whole entry): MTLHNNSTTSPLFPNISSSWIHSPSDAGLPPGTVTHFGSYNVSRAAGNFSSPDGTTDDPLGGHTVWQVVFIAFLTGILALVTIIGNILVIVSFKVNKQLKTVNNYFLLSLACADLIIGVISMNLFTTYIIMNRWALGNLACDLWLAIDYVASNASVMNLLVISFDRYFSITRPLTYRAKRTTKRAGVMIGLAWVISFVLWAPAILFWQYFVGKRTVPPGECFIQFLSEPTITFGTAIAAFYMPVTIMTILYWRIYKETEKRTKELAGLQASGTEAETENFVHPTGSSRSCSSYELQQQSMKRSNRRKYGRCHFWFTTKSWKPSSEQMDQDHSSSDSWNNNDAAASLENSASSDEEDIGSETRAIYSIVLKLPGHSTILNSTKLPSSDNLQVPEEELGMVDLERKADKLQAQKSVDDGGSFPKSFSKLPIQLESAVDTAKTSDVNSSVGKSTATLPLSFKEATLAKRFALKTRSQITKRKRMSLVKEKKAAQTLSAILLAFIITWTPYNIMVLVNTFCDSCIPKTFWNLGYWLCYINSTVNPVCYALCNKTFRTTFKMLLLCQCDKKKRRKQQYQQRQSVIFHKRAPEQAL

The Ki is the dissociation constant of the complex between target and ligand, obtained from inhibition or displacement. The low end stands for higher affinity, the high end for lower affinity. As for `C[C@@H]1OC(=O)[C@@H]2C[C@@H]3CCCC[C@@H]3[C@@H](C#C[C@H]3CCC[C@H](C)N3C)[C@H]12`, the inhibition constant Ki in assay [1] was 3.24 µM; in assay [2], 1.17 µM; in assay [3], 11 µM; in assay [4] it was 1.95 µM.
`C[C@@H]1OC(=O)[C@@H]2C[C@@H]3CCCC[C@@H]3[C@@H](/C=C/[C@H]3CCC[C@H](C)N3C)[C@H]12`: the values for the Ki in assay [1] and in assay [2] were 0.427 µM and 0.0955 µM, respectively.
The like results for `C[C@@H]1OC(=O)[C@@H]2C[C@@H]3CCCC[C@@H]3[C@@H](/C=C\[C@H]3CCC[C@H](C)N3C)[C@H]12` were, in that order, 2.34 µM and 0.676 µM.
In the case of `C[C@@H]1OC(=O)[C@H]2C[C@H]3CCCC[C@@H]3[C@@H](/C=C/[C@H]3CCC[C@H](C)N3C)[C@@H]12` [HIMBACINE], the Ki was 0.158 µM in assay [1] and 0.00468 µM in assay [2].
`C[C@@H]1OC(=O)[C@H]2C[C@H]3CCCC[C@@H]3[C@@H](C#C[C@H]3CCC[C@H](C)N3C)[C@@H]12`: the inhibitory constant (Ki) is 3.24 µM in assay [1], 0.309 µM in assay [2], 3.31 µM in assay [3] and 0.891 µM in assay [4].
`C[C@@H]1OC(=O)[C@H]2C[C@H]3CCCC[C@@H]3[C@@H](/C=C\[C@H]3CCC[C@H](C)N3C)[C@@H]12`: the values for the Ki in assay [1] and in assay [2] were 1.51 µM and 1.74 µM, respectively.
For the compound `C[C@@H]1OC(=O)[C@H]2C[C@H]3CCCC[C@H]3[C@H](/C=C\[C@H]3CCC[C@H](C)N3C)[C@@H]12`, the Ki in assay [1] was 2.57 µM; in assay [2], 0.851 µM.
Turning to `C[C@@H]1OC(=O)[C@H]2C[C@H]3CCCC[C@H]3[C@H](/C=C/[C@H]3CCC[C@H](C)N3C)[C@@H]12`, the results for the inhibition constant Ki in assay [1] and in assay [2] were 1.74 µM and 0.17 µM, respectively.
`C[C@@H]1OC(=O)[C@H]2C[C@H]3CCCC[C@H]3[C@H](C#C[C@H]3CCC[C@H](C)N3C)[C@@H]12`: the Ki was 5.37 µM in assay [1], 1.15 µM in assay [2], 5.01 µM in assay [3] and 1.74 µM in assay [4].
